In ChEMBL document CHEMBL3045406, “Enantioselective Relieving Activity of α-Methylbenzylphenylureas toward Bensulfuron-methyl Injury to Rice (Oryza sativa)” (Biosci Biotechnol Biochem, 1999):

Tests used:
Oryza sativa [1] = experiment: Effect on Oryza sativa (rice) assessed as growth rate at 1 uM relative to control; format: organism-based; details: in vivo
Oryza sativa [2] = experiment: Relieving activity against bensulfuron-methyl induced injury to Oryza sativa (rice) assessed as growth rate at 1 uM (Rbv = 46 to 53%); format: functional
Oryza sativa [3] = experiment: Effect on Oryza sativa (rice) assessed as growth rate at 0.1 uM relative to control; format: organism-based; details: in vivo
Oryza sativa [4] = experiment: Safener indices, ratio of compound effect of Oryza sativa (rice) growth rate to relieving activity against bensulfuron-methyl induced injury to Oryza sativa growth rate at 1 uM
Oryza sativa [5] = experiment: Effect on Oryza sativa (rice) assessed as growth rate at 10 uM relative to control; format: organism-based; details: in vivo
Oryza sativa [6] = experiment: Safener indices, ratio of compound effect of Oryza sativa (rice) growth rate to relieving activity against bensulfuron-methyl induced injury to Oryza sativa growth rate at 10 uM
Oryza sativa [7] = experiment: Relieving activity against bensulfuron-methyl induced injury to Oryza sativa (rice) assessed as growth rate at 0.1 uM (Rbv = 46 to 53%); format: functional
Oryza sativa [8] = experiment: Relieving activity against bensulfuron-methyl induced injury to Oryza sativa (rice) assessed as growth rate at 10 uM (Rbv = 46 to 53%); format: functional
[9] = Hydrophobicity, log K of the compound; format: physicochemical; details: octanol/water
Oryza sativa [10] = experiment: Safener indices, ratio of compound effect of Oryza sativa (rice) growth rate to relieving activity against bensulfuron-methyl induced injury to Oryza sativa growth rate at 0.1 uM

SMILES	Activity (Oryza sativa [1])	Activity (Oryza sativa [3])	Activity (Oryza sativa [5])	log K [9]	Activity (Oryza sativa [2])	Ratio (Oryza sativa [4])	Ratio (Oryza sativa [6])	Activity (Oryza sativa [7])	Activity (Oryza sativa [8])	Ratio (Oryza sativa [10])
C[C@H](NC(=O)Nc1cccc(Br)c1)c1ccccc1	100%	100%	99%	0.512	80%	59	85	66%	92%	31
C[C@@H](NC(=O)Nc1cc(C(C)(C)C)ccc1C(C)(C)C)c1ccccc1	99%	100%	99%	1.001	63%	23	43	57%	73%	11
C[C@H](NC(=O)Nc1cccc(C(F)(F)F)c1F)c1ccccc1	98%	99%	100%	0.624	92%	84	96	76%	98%	51
CCCCCCCc1ccc(NC(=O)N[C@H](C)c2ccccc2)cc1	100%	100%	100%	1.266	52%	5	9	51%	53%	5

More lines, main results first:

Activity (Oryza sativa [1])	Activity (Oryza sativa [3])	Activity (Oryza sativa [5])	log K [9]	SMILES	Activity (Oryza sativa [2])	Ratio (Oryza sativa [4])	Ratio (Oryza sativa [6])	Activity (Oryza sativa [7])	Activity (Oryza sativa [8])	Ratio (Oryza sativa [10])
100%	100%	100%	0.667	CCOC(=O)c1ccccc1NC(=O)N[C@@H](C)c1ccccc1	60%	21	34	50%	67%	0
100%	100%	96%	0.502	C[C@@H](NC(=O)Nc1ccccc1I)c1ccccc1	68%	34	69	61%	84%	19
95%	99%	84%	0.363	C[C@@H](NC(=O)Nc1cccc(F)c1)c1ccccc1	57%	22	44	47%	67%	-4
100%	101%	92%	0.422	CCc1ccccc1NC(=O)N[C@H](C)c1ccccc1	55%	8	47	52%	72%	1
99%	100%	90%	0.435	C[C@@H](NC(=O)Nc1cccc(F)c1F)c1ccccc1	66%	31	73	53%	85%	5
99%	101%	102%	0.504	C[C@H](NC(=O)Nc1ccccc1Br)c1ccccc1	87%	74	97	67%	98%	32
